Measurements taken from patent publication US11345700B2, “Methods of preparing inhibitors of influenza viruses replication” (priority 2013, dated 2022).
Like-named read-outs stand apart in the source and are kept apart here.

Legend:
influenza A strains = experiment: microbe, parasite or virus in culture; assay type: cell-based
influenza virus = assay type: in vivo, mice
[1] = system: Influenza A/Vietnam/1203/2004 (H5N1) virus; assay type: in vivo, BALB/c mice; details: 10 mg/kg p.o. twice a day for 10 days; Treatment (+48 h)
[2] = system: influenza A/Wisconsin/67/2005 (H3N2) challenge strain virus; experiment: Human influenza challenge: clinical and influenza-like symptom scores; assay type: in vivo, healthy volunteers (humans)
Procedure: Subjects underwent thrice daily nasal swabs, and kept thrice daily score cards for clinical symptoms from Days 1-7, and were discharged from the facility on Day 8, with safety follow-up at approximately Day 28. Nasal swabs were assayed for influenza virus in cell culture (primary analysis) and by qRT-PCR (secondary analysis).
Subjects recorded clinical symptoms three times a day in diaries. An AUC of clinical and influenza-like symptom scores from Day 1 through Day 7 was calculated.

influenza B virus = experiment: Antiviral activity in MDCK cells measured by ATP levels (CellTiter-Glo), influenza B; assay type: cell-based; details: read-out: Cell Protection Assay EC50 ± SD
[3] = system: Influenza A/California/04/2009 (pndH1N1) virus; assay type: in vivo, BALB/c mice
[4] = Human influenza challenge: safety assessment, adverse events; assay type: in vivo, healthy volunteers (humans)
Text: A list of adverse events occurring in ≥10% of subjects in any treatment group is presented (Table 29). Influenza-like illness was the most frequently reported adverse event, and was reported by an approximately equal proportion of subjects in the placebo and Compound (1) groups.

[5] = Pooled Compound (1) dose groups (N = 52)
[6] = 1 mg/kg p.o. twice a day for 10 days starting 2 hours prior to virus exposure
[7] = 3 mg/kg p.o. twice a day for 10 days starting 2 hours prior to virus exposure
[8] = 10 mg/kg p.o. twice a day for 10 days starting 2 hours prior to virus exposure

Structure (SMILES): O=C(O)[C@H]1[C@H]2CC[C@H](CC2)[C@@H]1Nc1nc(-c2c[nH]c3ncc(F)cc23)ncc1F [Compound (1)]
- EC50 (influenza A strains; ATCC 2 / H1N1, MDCK, read-out: Cell Protection Assay EC50 ± SD): 1.9 ± 3 nM
- EC50 (influenza A strains; ATCC 3 / H1N1, MDCK, read-out: Cell Protection Assay EC50 ± SD): 1.9 ± 3.2 nM
- EC50 (influenza A strains; H1N1, MDCK, in Sus scrofa, read-out: Cell Protection Assay EC50 ± SD, A/Swine/1976/31, H1N1): 0.47 ± 0.11 nM
- EC50 (influenza A strains; H1N1, MDCK, in Sus scrofa, read-out: Cell Protection Assay EC50 ± SD, A/Swine/Iowa/15/30, H1N1): 0.65 ± 0.082 nM
- EC50 (influenza A strains; H1N1, MDCK, read-out: Cell Protection Assay EC50 ± SD, A/New Jersey/8/76, H1N1): 0.2 ± 0.096 nM
- EC50 (influenza A strains; H3N8, MDCK, in Equus caballus, read-out: Cell Protection Assay EC50 ± SD, A/Equine/2/Miami/63, H3N8): 0.5 ± 0.065 nM
- half maximal reduction in lung titers (influenza virus; mice infected 24 h, then dosed for 24 h (q6 h, q12 h, q24 h)): 2-3 log
- serum-shifted EC99 (influenza virus; plasma concentration near which half maximal reduction in lung titers occurs): 100 ng/mL
- MDD ± SD (mean day of death of mice that died on or before day 21) [1]: >21
- Mean Lung Parameters (Day 6): Virus Titer [1]: 3.75 ± 0.94 Log10 CCID50/g
- Survivors/Total [1]: 10/10
- Composite Clinical Symptom AUC, median ([2]; 100 mg QD (N = 12)): 1.85 Grade*Day
- Composite Clinical Symptom Duration, median ([2]; 100 mg QD (N = 12)): 3.21 days
- Composite Clinical Symptom Peak, mean ([2]; 100 mg QD (N = 12)): 3.17 Grade
- Influenza like Symptom AUC, median ([2]; 100 mg QD (N = 12)): 1.85 Grade*Day
- Influenza like Symptom Duration, median ([2]; 100 mg QD (N = 12)): 3.21 days
- Influenza like Symptom Peak, mean ([2]; 100 mg QD (N = 12)): 2.75 Grade
- Composite Clinical Symptom AUC, median ([2]; 400 mg QD (N = 12)): 4.70 Grade*Day
- Composite Clinical Symptom Duration, median ([2]; 400 mg QD (N = 12)): 3.34 days
- Composite Clinical Symptom Peak, mean ([2]; 400 mg QD (N = 12)): 2.83 Grade
- Influenza like Symptom AUC, median ([2]; 400 mg QD (N = 12)): 3.80 Grade*Day
- Influenza like Symptom Duration, median ([2]; 400 mg QD (N = 12)): 3.34 days
- Influenza like Symptom Peak, mean ([2]; 400 mg QD (N = 12)): 2.42 Grade
- Composite Clinical Symptom AUC, median ([2]; 900/600 mg (N = 14)): 1.75 Grade*Day
- Composite Clinical Symptom Duration, median ([2]; 900/600 mg (N = 14)): 2.69 days
- Composite Clinical Symptom Peak, mean ([2]; 900/600 mg (N = 14)): 3.71 Grade
- Influenza like Symptom AUC, median ([2]; 900/600 mg (N = 14)): 1.75 Grade*Day
- Influenza like Symptom Duration, median ([2]; 900/600 mg (N = 14)): 2.69 days
- Influenza like Symptom Peak, mean ([2]; 900/600 mg (N = 14)): 3.21 Grade
- Composite Clinical Symptom AUC, median ([2]; 1200/600 mg (N = 14)): 1.95 Grade*Day
- Composite Clinical Symptom Duration, median ([2]; 1200/600 mg (N = 14)): 1.88 days
- Composite Clinical Symptom Peak, mean ([2]; 1200/600 mg (N = 14)): 1.50 Grade
- Influenza like Symptom AUC, median ([2]; 1200/600 mg (N = 14)): 1.75 Grade*Day
- Influenza like Symptom Duration, median ([2]; 1200/600 mg (N = 14)): 1.88 days
- Influenza like Symptom Peak, mean ([2]; 1200/600 mg (N = 14)): 1.36 Grade
- Composite Clinical Symptom AUC, median [2, 5]: 2.15 Grade*Day
- Composite Clinical Symptom Duration, median [2, 5]: 2.34 days
- Composite Clinical Symptom Peak, mean [2, 5]: 2.79 Grade
- Influenza like Symptom AUC, median [2, 5]: 2.05 Grade*Day
- Influenza like Symptom Duration, median [2, 5]: 2.34 days
- Influenza like Symptom Peak, mean [2, 5]: 2.42 Grade
- EC50 (influenza B virus; B/Russia/69): > 10 nM
- EC50 (influenza B virus; Influenza B virus, MDCK, B/Lee/40): > 10 nM
- Mean Lung Parameters (Day 6): Score (hemorrhage score 0-4) [3, 6]: 0.6
- Mean Lung Parameters (Day 6): Virus Titer [3, 6]: 5.5 Log10 CCID50/g
- Mean Lung Parameters (Day 6): Weight [3, 6]: 246 mg
- Mean Lung Parameters (Day 6): Score (hemorrhage score 0-4) [3, 7]: 0.0
- Mean Lung Parameters (Day 6): Virus Titer [3, 7]: 3.1 Log10 CCID50/g
- Mean Lung Parameters (Day 6): Weight [3, 7]: 123 mg
- Mean Lung Parameters (Day 6): Score (hemorrhage score 0-4) [3, 8]: 0.2
- Mean Lung Parameters (Day 6): Virus Titer [3, 8]: <2.6^d*** Log10 CCID50/g
- Mean Lung Parameters (Day 6): Weight [3, 8]: 132 mg
- tolerability ([4]; 100 mg to 1200/600 mg QD for 5 days, healthy volunteers): well tolerated
- Adverse event: Alanine aminotransferase increased ([4]; 100 mg, N = 16): 3 (18.8) n(%)
- Adverse event: Aspartate aminotransferase increased ([4]; 100 mg, N = 16): 1 (6.3) n(%)
- Adverse event: Blood phosphorus decreased ([4]; 100 mg, N = 16): 3 (18.8) n(%)
- Adverse event: Dermatitis contact ([4]; 100 mg, N = 16): 3 (18.8) n(%)
- Adverse event: Headache ([4]; 100 mg, N = 16): 1 (6.3) n(%)
- Adverse event: Influenza-like illness ([4]; 100 mg, N = 16): 8 (50.0) n(%)
- Adverse event: Malaise ([4]; 100 mg, N = 16): 2 (12.5) n(%)
- Adverse event: Nasal congestion ([4]; 100 mg, N = 16): 0 n(%)
